The target in one test is CSF-1R (Homo sapiens, UniProt P07333). In words: Peptide (non-phosphorylated) assay, fluorescence polarization competition immunoassay. The class given is biochemical. Particulars: 0.7 nM CSF-1R, 308 μM SYEGNSYTFIDPTQ peptide, 1 mM ATP, 80 min; mean of at least three determinations; read-out: c-fms Peptide IC50. Summed up:
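Read-out is fluorescence polarization: after EDTA quench, anti-phosphotyrosine antibody plus PTK green tracer compete with the phosphorylated peptide for 30 min. The CSF-1R reaction itself ran 80 min at room temperature after ATP addition. DMSO (4%) wells served as controls, positive controls pre-treated with EDTA.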
Chain of CSF-1R (P07333 20-972): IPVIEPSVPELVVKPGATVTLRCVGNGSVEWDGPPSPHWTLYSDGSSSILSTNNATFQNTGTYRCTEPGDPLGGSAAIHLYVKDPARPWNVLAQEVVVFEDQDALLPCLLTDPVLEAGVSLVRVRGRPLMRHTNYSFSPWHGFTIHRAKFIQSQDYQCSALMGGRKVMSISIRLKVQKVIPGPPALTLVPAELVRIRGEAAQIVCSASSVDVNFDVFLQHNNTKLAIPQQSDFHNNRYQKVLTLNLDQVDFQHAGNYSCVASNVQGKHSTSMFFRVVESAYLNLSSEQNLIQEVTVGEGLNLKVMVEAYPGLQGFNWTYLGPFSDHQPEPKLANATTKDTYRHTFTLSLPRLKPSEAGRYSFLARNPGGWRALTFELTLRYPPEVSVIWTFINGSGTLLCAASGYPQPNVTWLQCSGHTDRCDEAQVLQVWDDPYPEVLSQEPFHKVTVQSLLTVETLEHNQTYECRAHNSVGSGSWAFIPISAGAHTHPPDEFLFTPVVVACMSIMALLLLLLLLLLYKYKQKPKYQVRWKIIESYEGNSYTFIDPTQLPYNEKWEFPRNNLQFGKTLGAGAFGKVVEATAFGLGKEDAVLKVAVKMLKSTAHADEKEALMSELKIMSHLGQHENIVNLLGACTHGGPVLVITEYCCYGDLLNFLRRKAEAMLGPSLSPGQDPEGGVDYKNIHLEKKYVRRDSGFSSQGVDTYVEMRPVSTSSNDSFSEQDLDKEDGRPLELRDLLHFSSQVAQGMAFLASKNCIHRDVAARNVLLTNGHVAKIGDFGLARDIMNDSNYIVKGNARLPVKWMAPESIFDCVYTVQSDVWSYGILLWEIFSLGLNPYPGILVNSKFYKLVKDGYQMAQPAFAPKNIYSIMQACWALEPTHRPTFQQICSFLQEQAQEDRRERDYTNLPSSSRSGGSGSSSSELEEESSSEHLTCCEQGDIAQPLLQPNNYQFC
Turning to `CONC(=O)c1cn(C2CCCCC2)c2nc(Nc3ccc(C(=O)N4CCCC4)cc3)ncc2c1=O` [Cpd 11, 8-cyclohexyl-5-oxo-2-[4-(pyrrolidine-1-carbonyl)-phenylamino]-5,8-dihydro-pyrido[2,3-d]pyrimidine-6-carboxylic acid methoxy-amide], the IC50 was over 300 nM.
Same read-out and setting: in the case of `CCc1ccc(-n2cc(C(=O)NOC)c(=O)c3cnc(Nc4ccc5c(c4)CC(=O)N5)nc32)cc1` [Cpd 304, 8-(4-ethyl-phenyl)-5-oxo-2-(2-oxo-2,3-dihydro-1H-indol-5-ylamino)-5,8-dihydro-pyrido[2,3-d]pyrimidine-6-carboxylic acid methoxy-amide] it was 0.6 nM.
The same measure, in the same setting: then `CCONC(=O)c1cn(C2CCCCC2)c2nc(Nc3ccc(C4CCN(C(C)=O)CC4)cc3)ncc2c1=O` [Cpd 29, 2-[4-(1-acetyl-piperidin-4-yl)-phenylamino]-8-cyclohexyl-5-oxo-5,8-dihydro-pyrido[2,3-d]pyrimidine-6-carboxylic acid ethoxy-amide], with 1 nM; and `CCONC(=O)c1cn(-c2ccc(CC)cc2)c2nc(Nc3ccc(C4CCN(CC(F)(F)F)CC4)cc3)ncc2c1=O` [Cpd 189, 8-(4-ethyl-phenyl)-5-oxo-2-{4-[1-(2,2,2-trifluoro-ethyl)-piperidin-4-yl]-phenylamino}-5,8-dihydro-pyrido[2,3-d]pyrimidine-6-carboxylic acid ethoxy-amide], with 9.7 nM; and `CONC(=O)c1cn(-c2ccc3c(c2)CCC3)c2nc(Nc3ccc(CCN4CCN(CC(F)(F)F)CC4)cc3)ncc2c1=O` [Cpd 149, 8-indan-5-yl-5-oxo-2-(4-{2-[4-(2,2,2-trifluoro-ethyl)-piperazin-1-yl]-ethyl}-phenylamino)-5,8-dihydro-pyrido[2,3-d]pyrimidine-6-carboxylic acid methoxy-amide], with 2.6 nM.
Still for that read-out and setting: in the case of `CONC(=O)c1cn(-c2ccc3c(c2)CCC3)c2nc(Nc3ccc(CCNCCS(C)(=O)=O)cc3)ncc2c1=O` [Cpd 99, 8-indan-5-yl-2-{4-[2-(2-methanesulfonyl-ethylamino)-ethyl]-phenylamino}-5-oxo-5,8-dihydro-pyrido[2,3-d]pyrimidine-6-carboxylic acid methoxy-amide] it was 0.9 nM; in that of `CCc1ccc(-n2cc(C(=O)NOC)c(=O)c3cnc(Nc4cccc(C5(O)CCCN(CC)C5)c4)nc32)cc1` (centres unmarked) [Cpd 278, 2-[3-(1-ethyl-3-hydroxy-piperidin-3-yl)-phenylamino]-8-(4-ethyl-phenyl)-5-oxo-5,8-dihydro-pyrido[2,3-d]pyrimidine-6-carboxylic acid methoxy-amide], 4.9 nM.
For `CCONC(=O)c1cn(C2CC2)c2nc(Nc3ccc(CCN4CCCC4)cc3)ncc2c1=O` [Cpd 142, 8-cyclopropyl-5-oxo-2-[4-(2-pyrrolidin-1-yl-ethyl)-phenylamino]-5,8-dihydro-pyrido[2,3-d]pyrimidine-6-carboxylic acid ethoxy-amide], the IC50 was 66 nM.
For `CONC(=O)c1cn(C2CCCC2)c2nc(Nc3ccc(C4CCNCC4)cc3)ncc2c1=O` [Cpd 45, 8-cyclopentyl-5-oxo-2-(4-piperidin-4-yl-phenylamino)-5,8-dihydro-pyrido[2,3-d]pyrimidine-6-carboxylic acid methoxy-amide], the IC50 turned out to be 1.9 nM.
On the same count and under the same terms, then `CONC(=O)c1cn(-c2ccc3c(c2)CCC3)c2nc(Nc3ccc(CCN4CCC4)cc3)ncc2c1=O` [Cpd 262, 2-[4-(2-azetidin-1-yl-ethyl)-phenylamino]-8-indan-5-yl-5-oxo-5,8-dihydro-pyrido[2,3-d]pyrimidine-6-carboxylic acid methoxy-amide], with 0.59 nM; and `CONC(=O)c1cn(-c2ccc3c(c2)CCC3)c2nc(Nc3ccc(C4CCN(S(C)(=O)=O)CC4)cc3)ncc2c1=O` [Cpd 76, 8-indan-5-yl-2-[4-(1-methanesulfonyl-piperidin-4-yl)-phenylamino]-5-oxo-5,8-dihydro-pyrido[2,3-d]pyrimidine-6-carboxylic acid methoxy-amide], with 0.83 nM; and `CONC(=O)c1cn(-c2ccc3c(c2)CCC3)c2nc(Nc3ccc(S(=O)(=O)N4CCN(C)CC4)cc3)ncc2c1=O` [Cpd 154, 8-indan-5-yl-2-[4-(4-methyl-piperazine-1-sulfonyl)-phenylamino]-5-oxo-5,8-dihydro-pyrido[2,3-d]pyrimidine-6-carboxylic acid methoxy-amide], with 7.3 nM.
Same read-out and setting: in the case of `CONC(=O)c1cn(-c2ccc3c(c2)CCC3)c2nc(Nc3ccc(C4CCN(CC(=O)O)CC4)cc3)ncc2c1=O` [Cpd 219, {4-[4-(8-indan-5-yl-6-methoxycarbamoyl-5-oxo-5,8-dihydro-pyrido[2,3-d]pyrimidin-2-ylamino)-phenyl]-piperidin-1-yl}-acetic acid] it was 2.2 nM; in that of `CCc1ccc(-n2cc(C(=O)NOC)c(=O)c3cnc(Nc4ccc(NCCCOC)cc4)nc32)cc1` [Cpd 213, 8-(4-ethyl-phenyl)-2-[4-(3-methoxy-propylamino)-phenylamino]-5-oxo-5,8-dihydro-pyrido[2,3-d]pyrimidine-6-carboxylic acid methoxy-amide], 1.1 nM.
The same measure, in the same setting: then `CONC(=O)c1cn(-c2ccc3c(c2)CCC3)c2nc(Nc3ccc(CCc4n[nH]c(C)n4)cc3)ncc2c1=O` [Cpd 172, 8-indan-5-yl-2-{4-[2-(5-methyl-1H-[1,2,4]triazol-3-yl)-ethyl]-phenylamino}-5-oxo-5,8-dihydro-pyrido[2,3-d]pyrimidine-6-carboxylic acid methoxy-amide], with 2.3 nM.
For `CONC(=O)c1cn(-c2ccc(C)c(C)c2)c2nc(Nc3ccc(CCN4CCCC4=O)cc3)ncc2c1=O` [Cpd 50, 8-(3,4-dimethyl-phenyl)-5-oxo-2-{4-[2-(2-oxo-pyrrolidin-1-yl)-ethyl]-phenylamino}-5,8-dihydro-pyrido[2,3-d]pyrimidine-6-carboxylic acid methoxy-amide], the IC50 amounted to 1.2 nM.
On the same count and under the same terms, in the case of `CONC(=O)c1cn(-c2ccc3c(c2)CCC3)c2nc(Nc3ccc(CN4CCCC4=O)cc3)ncc2c1=O` [Cpd 9, 8-indan-5-yl-5-oxo-2-[4-(2-oxo-pyrrolidin-1-ylmethyl)-phenylamino]-5,8-dihydro-pyrido[2,3-d]pyrimidine-6-carboxylic acid methoxy-amide] it was 0.24 nM; in that of `C#Cc1ccc(-n2cc(C(=O)NOC)c(=O)c3cnc(Nc4ccc(CCN5CCN(C)CC5)cc4)nc32)cc1` [Cpd 31, 8-(4-ethynyl-phenyl)-2-{4-[2-(4-methyl-piperazin-1-yl)-ethyl]-phenylamino}-5-oxo-5,8-dihydro-pyrido[2,3-d]pyrimidine-6-carboxylic acid methoxy-amide], 2.6 nM.
On the same count and under the same terms, in the case of `CONC(=O)c1cn(-c2ccc3c(c2)CCC3)c2nc(Nc3cccc(C(=O)NCCN4CCCC4)c3)ncc2c1=O` [Cpd 192, 8-indan-5-yl-5-oxo-2-[3-(2-pyrrolidin-1-yl-ethylcarbamoyl)-phenylamino]-5,8-dihydro-pyrido[2,3-d]pyrimidine-6-carboxylic acid methoxy-amide] it was 6.3 nM.
Same read-out and setting: then `CCc1ccc(-n2cc(C(=O)NOC)c(=O)c3cnc(Nc4ccc(CC(=O)NNC)cc4)nc32)cc1` [Cpd 106, 8-(4-ethyl-phenyl)-2-[4-(N′-methyl-hydrazinocarbonylmethyl)-phenylamino]-5-oxo-5,8-dihydro-pyrido[2,3-d]pyrimidine-6-carboxylic acid methoxy-amide], with 1.6 nM; and `CONC(=O)c1cn(-c2ccc3c(c2)CCC3)c2nc(Nc3ccc(C4CCN(CC(F)(F)C(F)(F)F)CC4)cc3)ncc2c1=O` [Cpd 293, 8-indan-5-yl-5-oxo-2-{4-[1-(2,2,3,3,3-pentafluoro-propyl)-piperidin-4-yl]-phenylamino}-5,8-dihydro-pyrido[2,3-d]pyrimidine-6-carboxylic acid methoxy-amide], with 2.9 nM; and `CONC(=O)c1cn(-c2ccc3c(c2)CCC3)c2nc(Nc3ccc(C4CCN(C)CC4(F)F)cc3)ncc2c1=O` (centres unmarked) [Cpd 237, 2-[4-(3,3-difluoro-1-methyl-piperidin-4-yl)-phenylamino]-8-indan-5-yl-5-oxo-5,8-dihydro-pyrido[2,3-d]pyrimidine-6-carboxylic acid methoxy-amide], with 0.71 nM.
`CCc1ccc(-n2cc(C(=O)NOC)c(=O)c3cnc(Nc4ccc5c(c4)OCCOCCOCCOCCOCCO5)nc32)cc1` [Cpd 294, 2-(6,7,9,10,12,13,15,16,18,19-decahydro-5,8,11,14,17,20-hexaoxa-benzocyclooctadecen-2-ylamino)-8-(4-ethyl-phenyl)-5-oxo-5,8-dihydro-pyrido[2,3-d]pyrimidine-6-carboxylic acid methoxy-amide]: the IC50 is 0.4 nM.
Same read-out and setting: in the case of `CC(C)ONC(=O)c1cn(-c2ccc3c(c2)CCC3)c2nc(Nc3ccc(S(=O)(=O)N(C)C)cc3)ncc2c1=O` [Cpd 137, 2-(4-dimethylsulfamoyl-phenylamino)-8-indan-5-yl-5-oxo-5,8-dihydro-pyrido[2,3-d]pyrimidine-6-carboxylic acid isopropoxy-amide] it was 16 nM; in that of `CONC(=O)c1cn(-c2ccc3c(c2)CCC3)c2nc(Nc3ccc(OC4CN5CCC4CC5)cc3)ncc2c1=O` (centres unmarked) [Cpd 264, 2-[4-(1-aza-bicyclo[2.2.2]oct-3-yloxy)-phenylamino]-8-indan-5-yl-5-oxo-5,8-dihydro-pyrido[2,3-d]pyrimidine-6-carboxylic acid methoxy-amide], 0.38 nM.

The same test, now with this note: c-fms Peptide IC50, 0.7 nM CSF-1R, 308 μM SYEGNSYTFIDPTQ peptide, 1 mM ATP, 80 min; mean of at least three determinations.
For the molecule `CONC(=O)c1cn(C2CCC(C)(C)CC2)c2nc(Nc3ccc(C4CCN(C)CC4)cc3)ncc2c1=O` [Cpd 209, 8-(4,4-dimethyl-cyclohexyl)-2-[4-(1-methyl-piperidin-4-yl)-phenylamino]-5-oxo-5,8-dihydro-pyrido[2,3-d]pyrimidine-6-carboxylic acid methoxy-amide], the concentration for half-maximal inhibition (IC50) amounted to 0.4 nM.

(Values after patent publication US20080114007A1 (priority 2006, published 2008).)
